The test system of assay [1] is barnyard grass. The experiment in a line: Test Example 3: herbicidal effect by foliage application, Wagner pot (Table 18, symbol H). Type of assay: in vivo, barnyard grass (Echinochloa crus-galli). The settings on record: 320 g/ha. In short, it runs like this:
(§1)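 Plants were sown in alluvial soil held under 0.1–0.5 cm standing water and grown 14 days in a greenhouse at 25–30 °C. An emulsifiable formulation, water-diluted to the set dose, was then sprayed onto the foliage, and effects were scored three weeks later using previously defined criteria.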

For the next assay, the system named is Chinese sprangletop. Nature of the assay: Test Example 3: herbicidal effect by foliage application, Wagner pot (Table 18, symbol D). It counts as in vivo, chinese sprangletop (Leptochloa chinensis). Conditions: 320 g/ha. The procedure, abridged: as §1
Another assay relates to rice flat sedge. The experiment in a line: Test Example 3: herbicidal effect by foliage application, Wagner pot (Table 18, symbol E). It counts as in vivo, rice flat sedge (Cyperus iria). The settings on record: 320 g/ha. The procedure, abridged: as §1
The next assay deals with southern crabgrass. The experiment in a line: Test Example 5: herbicidal effect by foliage application, plastic box (Table 20, symbol F). Type of assay: in vivo, southern crabgrass (Digitaria ciliaris). The settings on record: amount of applied herbicide 320 g/ha; foliage application after 14-day growth; evaluated three weeks after application. In short, it runs like this:
(§2)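 Post-emergence foliar test in sterilized diluvial soil. Compound applied as water-diluted emulsion at a predetermined rate to 14-day-old plants; evaluation at three weeks.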

The test system of a further assay is green foxtail. Nature of the assay: Test Example 5: herbicidal effect by foliage application, plastic box (Table 20, symbol G). It counts as in vivo, green foxtail (Setaria viridis). Conditions: amount of applied herbicide 320 g/ha; foliage application after 14-day growth; evaluated three weeks after application. The procedure, abridged:
as §2

For assay [2], the system named is barnyard grass. Nature of the assay: Test Example 5: herbicidal effect by foliage application, plastic box (Table 20, symbol H). It counts as in vivo, barnyard grass (Echinochloa crus-galli). The settings on record: amount of applied herbicide 320 g/ha; foliage application after 14-day growth; evaluated three weeks after application. The procedure, abridged: as §2

The test system of a further assay is wild oat. The experiment in a line: Test Example 5: herbicidal effect by foliage application, plastic box (Table 20, symbol I). Type of assay: in vivo, wild oat (Avena fatua). Conditions: amount of applied herbicide 320 g/ha; foliage application after 14-day growth; evaluated three weeks after application. In short, it runs like this:
as §2

A further assay has as its system blackgrass. Nature of the assay: Test Example 5: herbicidal effect by foliage application, plastic box (Table 20, symbol J). It counts as in vivo, blackgrass (Alopecurus myosuroides). Conditions: amount of applied herbicide 320 g/ha; foliage application after 14-day growth; evaluated three weeks after application. The procedure, abridged: as §2
The test system of a further assay is Italian ryegrass. The experiment in a line: Test Example 5: herbicidal effect by foliage application, plastic box (Table 20, symbol K). Type of assay: in vivo, Italian ryegrass (Lolium multiflorum). Conditions: amount of applied herbicide 320 g/ha; foliage application after 14-day growth; evaluated three weeks after application. In short, it runs like this: as §2

Another assay relates to windgrass. Nature of the assay: Test Example 5: herbicidal effect by foliage application, plastic box (Table 20, symbol L). It counts as in vivo, windgrass (Apera spica-venti). The settings on record: amount of applied herbicide 320 g/ha; foliage application after 14-day growth; evaluated three weeks after application. The procedure, abridged:
as §2

Another assay deals with velvetleaf. The experiment in a line: Test Example 5: herbicidal effect by foliage application, plastic box (Table 20, symbol M). Conditions: amount of applied herbicide 320 g/ha; foliage application after 14-day growth; evaluated three weeks after application. It counts as in vivo, velvetleaf (Abutilon theophrasti). The procedure, abridged: as §2
Another assay concerns redroot pigweed. The experiment in a line: Test Example 5: herbicidal effect by foliage application, plastic box (Table 20, symbol N). It counts as in vivo, redroot pigweed (Amaranthus retroflexus). The settings on record: amount of applied herbicide 320 g/ha; foliage application after 14-day growth; evaluated three weeks after application. The procedure, abridged:
as §2

Another assay concerns lambsquarters. The experiment in a line: Test Example 5: herbicidal effect by foliage application, plastic box (Table 20, symbol O). The settings on record: amount of applied herbicide 320 g/ha; foliage application after 14-day growth; evaluated three weeks after application. Type of assay: in vivo, lambsquarters (Chenopodium album). The procedure, abridged: as §2
In a further assay the test system is chickweed. Nature of the assay: Test Example 5: herbicidal effect by foliage application, plastic box (Table 20, symbol P). Conditions: amount of applied herbicide 320 g/ha; foliage application after 14-day growth; evaluated three weeks after application. It counts as in vivo, common chickweed (Stellaria media). In short, it runs like this: as §2
Another assay relates to persian speedwell. The experiment in a line: Test Example 5: herbicidal effect by foliage application, plastic box (Table 20, symbol R). The settings on record: amount of applied herbicide 320 g/ha; foliage application after 14-day growth; evaluated three weeks after application. Type of assay: in vivo, Persian speedwell (Veronica persica). The procedure, abridged:
as §2

Consider three molecules from US20230085307A1, “PYRIDAZINONE COMPOUND AND HERBICIDE” (NISSAN CHEMICAL CORPORATION, priority 2019, published 2023).

`CCCC(=O)Oc1c(C)nn(C)c(=O)c1-c1c(-c2cccc(SCC)c2)sc2c(Cl)cccc12` [4-093]: in the assay with barnyard grass [1], the “herbicidal effect on barnyard grass (H)” value is 5 (Herbicidal rate of 90% or more (almost completely withered)). In the assay on Chinese sprangletop, the “herbicidal effect on Chinese sprangletop (D)” value (from here on “herbicidal effect … (D)”) is 4 (Herbicidal rate of 70% or more and less than 90%). The “herbicidal effect on rice flat sedge (E)” value with rice flat sedge is 4 (Herbicidal rate of 70% or more and less than 90%). Further, in the assay with southern crabgrass, the “Herbicidal effect by foliage application, F: southern crabgrass” value (from here on “Herbicidal effect … southern crabgrass”) was 0 (Herbicidal rate of 5% or less (almost no effect)). In addition, the “Herbicidal effect by foliage application, G: green foxtail” value (“Herbicidal effect … green foxtail” for short) in the assay with green foxtail was 2 (Herbicidal rate of 20% or more and less than 40%). Besides, in the assay with barnyard grass [2], the “Herbicidal effect by foliage application, H: barnyard grass” value (“Herbicidal effect … H: barnyard grass” below) is given as 0 (Herbicidal rate of 5% or less (almost no effect)). Also, the “Herbicidal effect by foliage application, I: wild oat” value (“Herbicidal effect … wild oat” for short) in the assay with wild oat is 1 (Herbicidal rate of 5% or more and less than 20%). For the same molecule, in the assay with blackgrass, the “Herbicidal effect by foliage application, J: blackgrass” value (shortened to “Herbicidal effect … blackgrass”) is on record as 0 (Herbicidal rate of 5% or less (almost no effect)). The “Herbicidal effect by foliage application, K: Italian ryegrass” value (from here on “Herbicidal effect … Italian ryegrass”) in the assay with Italian ryegrass is listed as 0 (Herbicidal rate of 5% or less (almost no effect)). Further, the “Herbicidal effect by foliage application, L: windgrass” value (shortened to “Herbicidal effect … windgrass”) in the assay on windgrass was 0 (Herbicidal rate of 5% or less (almost no effect)). For the same molecule, in the assay on velvetleaf, the “Herbicidal effect by foliage application, M: velvetleaf” value (“Herbicidal effect … velvetleaf” for short) is 3 (Herbicidal rate of 40% or more and less than 70%). Further, in the assay on redroot pigweed, the “Herbicidal effect by foliage application, N: redroot pigweed” value (“Herbicidal effect … redroot pigweed” for short) is 3 (Herbicidal rate of 40% or more and less than 70%). In addition, the “Herbicidal effect by foliage application, O: lambsquarters” value (from here on “Herbicidal effect … lambsquarters”) in the assay on lambsquarters was 1 (Herbicidal rate of 5% or more and less than 20%). In addition, the “Herbicidal effect by foliage application, P: chickweed” value (“Herbicidal effect … P: chickweed” below) with chickweed was 1 (Herbicidal rate of 5% or more and less than 20%). In addition, the “Herbicidal effect by foliage application, R: persian speedwell” value (“Herbicidal effect … persian speedwell” below) in the assay on persian speedwell is 3 (Herbicidal rate of 40% or more and less than 70%).

Take `CCCC(=O)Oc1c(C)nn(C)c(=O)c1-c1c(-c2ccc(OC)cc2)sc2cc(Cl)c(Cl)cc12` [5-044]: the “herbicidal effect on barnyard grass (H)” value in the assay with barnyard grass [1] is 3 (Herbicidal rate of 40% or more and less than 70%). Further, in the assay with Chinese sprangletop, the “herbicidal effect … (D)” value is 3 (Herbicidal rate of 40% or more and less than 70%). Moreover, the “herbicidal effect on rice flat sedge (E)” value with rice flat sedge is 3 (Herbicidal rate of 40% or more and less than 70%). Further, in the assay on southern crabgrass, the “Herbicidal effect … southern crabgrass” value is 0 (Herbicidal rate of 5% or less (almost no effect)). For the same molecule, the “Herbicidal effect … green foxtail” value with green foxtail is recorded as 0 (Herbicidal rate of 5% or less (almost no effect)). Besides, the “Herbicidal effect … H: barnyard grass” value with barnyard grass [2] was 0 (Herbicidal rate of 5% or less (almost no effect)). Also, the “Herbicidal effect … wild oat” value in the assay with wild oat is 0 (Herbicidal rate of 5% or less (almost no effect)). For the same molecule, the “Herbicidal effect … blackgrass” value with blackgrass was 0 (Herbicidal rate of 5% or less (almost no effect)). The “Herbicidal effect … Italian ryegrass” value in the assay with Italian ryegrass was 0 (Herbicidal rate of 5% or less (almost no effect)). The “Herbicidal effect … windgrass” value in the assay with windgrass is recorded as 0 (Herbicidal rate of 5% or less (almost no effect)). Besides, the “Herbicidal effect … velvetleaf” value in the assay with velvetleaf is 1 (Herbicidal rate of 5% or more and less than 20%). For the same molecule, in the assay with redroot pigweed, the “Herbicidal effect … redroot pigweed” value was 0 (Herbicidal rate of 5% or less (almost no effect)). Moreover, the “Herbicidal effect … lambsquarters” value in the assay with lambsquarters is 3 (Herbicidal rate of 40% or more and less than 70%). The “Herbicidal effect … P: chickweed” value in the assay on chickweed is listed as 5 (Herbicidal rate of 90% or more (almost completely withered)). Moreover, in the assay on persian speedwell, the “Herbicidal effect … persian speedwell” value is 4 (Herbicidal rate of 70% or more and less than 90%).

In the case of `Cc1nn(C)c(=O)c(-c2c(-c3ccc(C(F)(F)F)cc3)sc3cc(Cl)c(Cl)cc23)c1O` [5-047], the “herbicidal effect on barnyard grass (H)” value in the assay with barnyard grass [1] was 3 (Herbicidal rate of 40% or more and less than 70%). The “herbicidal effect … (D)” value in the assay with Chinese sprangletop is 0 (Herbicidal rate of 5% or less (almost no effect)). In addition, the “herbicidal effect on rice flat sedge (E)” value in the assay on rice flat sedge is 0 (Herbicidal rate of 5% or less (almost no effect)). Besides, the “Herbicidal effect … southern crabgrass” value with southern crabgrass is recorded as 0 (Herbicidal rate of 5% or less (almost no effect)). Further, in the assay on green foxtail, the “Herbicidal effect … green foxtail” value is 0 (Herbicidal rate of 5% or less (almost no effect)). In the assay on barnyard grass [2], the “Herbicidal effect … H: barnyard grass” value is 0 (Herbicidal rate of 5% or less (almost no effect)). For the same molecule, the “Herbicidal effect … wild oat” value with wild oat is 0 (Herbicidal rate of 5% or less (almost no effect)). Further, the “Herbicidal effect … blackgrass” value in the assay on blackgrass is on record as 0 (Herbicidal rate of 5% or less (almost no effect)). Besides, the “Herbicidal effect … Italian ryegrass” value with Italian ryegrass is reported as 0 (Herbicidal rate of 5% or less (almost no effect)). Also, in the assay with windgrass, the “Herbicidal effect … windgrass” value is 2 (Herbicidal rate of 20% or more and less than 40%). For the same molecule, the “Herbicidal effect … velvetleaf” value in the assay on velvetleaf is 0 (Herbicidal rate of 5% or less (almost no effect)). The “Herbicidal effect … redroot pigweed” value in the assay with redroot pigweed was 3 (Herbicidal rate of 40% or more and less than 70%). Moreover, the “Herbicidal effect … lambsquarters” value with lambsquarters was 1 (Herbicidal rate of 5% or more and less than 20%). Further, in the assay with chickweed, the “Herbicidal effect … P: chickweed” value is 0 (Herbicidal rate of 5% or less (almost no effect)). For the same molecule, the “Herbicidal effect … persian speedwell” value in the assay with persian speedwell was 0 (Herbicidal rate of 5% or less (almost no effect)).
